Reference: PMC12247020, “A Cyclized Helix‐Loop‐Helix Peptide as a Molecular Scaffold for Cell‐Membrane Permeable Inhibitors for the Interaction Between Estrogen Receptor α and Coactivator SRC1” (Chembiochem, 2025)
Bridge positions count the residues as written; N and C are the ends. Peptide text beside a SMILES is read from it.

Assays:
[1] = test system: MCF‐7 breast cancer cells; assay: WST‐1 cell viability assay, 17β‐estradiol‐dependent proliferation; type: cell-based; details: WST‐1 assay, 3.125 to 25 μM peptide, 10 nM 17β‐estradiol, 72 h
Method: Next, we examined the inhibitory activities of the peptides for the 17β‐estradiol‐dependent proliferation of MCF‐7 breast cancer cells using the WST‐1 assay (Figure 2D). The MCF‐7 cells were incubated with the serially diluted peptides cHLH‐ERα or YT1‐RS in the presence of 10 nM 17β‐estradiol.
For cell viability assay,^[ [35] ^] ER‐positive MCF‐7 cancer cells were grown in the recommended media Dulbecco's modified Eagle medium (DMEM) supplemented with 10% heat‐inactivated fetal bovine serum and with 1% penicillin–streptomycin (Gibco) in a humidified environment with 5% CO2. These cells were incubated in 96‐well plates (Corning) at 5,000 cells/well and cultured for 24 h. The cells were treated with 10 nM 17β‐estradiol for 1 h, then a various concentrations of peptides were added. After culturing the cells for 72 h, the proliferation f cells was measured by using WST‐1 reagent (Roche) according to the standard protocols. The absorbance was measured by using a microplate reader (Model 680, Bio‐Rad). Reliability of the cell viability assay was confirmed by using Tamoxifen (nacalai tesque) as a control.

[2] = test system: human ERα and the transcriptional coactivator SRC1; assay: Yeast reporter assay (lacZ, β‐galactosidase) for ERα–SRC1 antagonism; type: cell-based; details: 100 μM peptide, 17β‐estradiol (10 and 100 nM), 18 h, 30 °C
Description: The expression plasmids for human ERα and the transcriptional coactivator SRC1 were transformed, along with the lacZ reporter plasmid carrying the estrogen response element (RE).^[ [13] ^] The production of ERα and SRC1 was regulated by the galactose‐inducible GAL1‐10 promoter. In response to 17β‐estradiol, ERα, and SRC1 formed a complex on the RE, inducing the ligand‐dependent expression of β‐galactosidase (Figure S8, Supporting Information). The genes encoding the major cell wall mannoproteins Cwp1p and Cwp2p were deleted,^[ [30] ^] probably allowing the cHLH peptides to access the cell membrane by passing through the less dense cell wall of the yeast strain.^[ [32] ^] The effect of the cHLH peptide on the ERα–SRC1 interaction was examined in the presence of 17β‐estradiol (10 and 100 nM).
As previously reported,^[ [30] ^] the yeast strain ERα cwp1Δcwp2Δ was cultured on agar plates with synthetic dextrose (glucose) complete (SDC) dropout medium lacking tryptophan, leucine, and uracil (SDC‐Trp, Leu, Ura; 2% glucose, 2% agar) for single colony isolation. […] Absorbance at wavelengths of 405 and 595 nm was measured using Model 680 Microplate Reader (BioRad Lab., Inc.) to estimate the β‐galactosidase activity as the amount of o‐nitrophenol (ONP) produced and yeast cell density, respectively. The relative β‐galactosidase activity in each well was calculated as A405/A595. […]

[3] = molecular target: T1, interaction between ERα/LBD and FL‐SRC1Box2 (Homo sapiens, UniProt P03372); assay: FP competition: inhibition of the ERα/LBD–FL‐SRC1Box2 interaction; type: binding; details: ERα/LBD 20 μM, four parameter logistic equation (Fig S5C)
T1 construct: Recombinant ERα/LBD (ERα^302–552) was prepared as previously reported; made in house; host or cells: Escherichia coli BL21-CodonPlus-RP (ERα LBD); the probe is a synthetic peptide
T1 sequence (P03372 302-552): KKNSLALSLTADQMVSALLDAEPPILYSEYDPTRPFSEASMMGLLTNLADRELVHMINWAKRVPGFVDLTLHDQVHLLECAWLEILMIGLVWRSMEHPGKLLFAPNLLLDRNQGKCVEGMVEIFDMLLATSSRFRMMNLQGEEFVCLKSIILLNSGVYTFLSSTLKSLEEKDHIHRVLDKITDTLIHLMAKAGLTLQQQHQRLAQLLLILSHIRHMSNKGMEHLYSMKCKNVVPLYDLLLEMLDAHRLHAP
Method: The binding activity of cHLH‐ERα was examined by fluorescence polarization (FP) analysis.^[ [26], [29] ^] The cHLH peptides were labeled with tetramethylrhodamine (TMR) to provide the fluorescent cHLH peptide TMR‐cHLH‐ERα, and fluorescent TMR‐YT1‐RS as a negative control (Figure 1, Figure S2, Supporting Information).
4. Fluorescence Polarization
The binding activity of the ERα-LBD was examined with 20 nM FL-SRC1Box2 (CH3CO- […]
C(FL)[…]-NH2; FL: Fluorescein) with 10 µM 17β-estradiol in 20 mM
Tris-HCl (pH 8.0), 25 mM NaCl, 10%(v/v) Glycerol, 1 mM TCEP as described. The concentration of FL-SRC1Box2 labeled with Fluorescein and TMR-cHLH-ERα and YT1-RS were determined from the absorption of Fluorescein or Tetramethylrhodamine. The respective peptide was incubated with ERα-LBD for 30 min in 20 mM Tris-HCl (pH 8.0), 25 mM NaCl with 1 mM 17β-estradiol, and the mixture was transferred into a 384-well microtiter well (Non-binding, Black, greiner bio -one) and the fluorescence polarization was measured on a spectrofluorometer (SpectraMax iD5, Molecular Devices) at 20 °C. The KD values were analyzed via a quadratic binding equation (Fig S5A, S5B) with the data fit to calculate by using KaleidaGraph 4.0 as described elsewhere. The IC50 value was estimated as 7.1 µM derived from four parameter logistic equation (Fig. S 5C). […]

CC(C)C[C@@H]1NC(=O)[C@H](C)NC(=O)[C@H](C)NC(=O)[C@H](CC(C)C)NC(=O)[C@H](CCCCN)NC(=O)CNC(=O)CNC(=O)CNC(=O)CNC(=O)CNC(=O)CNC(=O)CNC(=O)[C@H](CCC(=O)O)NC(=O)[C@H](CC(C)C)NC(=O)[C@H](CCCNC(=N)N)NC(=O)[C@H](CCCNC(=N)N)NC(=O)[C@H](CC(C)C)NC(=O)[C@H](CCC(=O)O)NC(=O)[C@H](CCCNC(=N)N)NC(=O)[C@H](CCC(=O)O)NC(=O)[C@H](CC(C)C)NC(=O)[C@H](CCCNC(=N)N)NC(=O)[C@H](CCCNC(=N)N)NC(=O)[C@H](CC(C)C)NC(=O)[C@H](CCC(=O)O)NC(=O)[C@H](CCCNC(=N)N)NC(=O)[C@H](C)NC(=O)CNC(=O)CSC[C@@H](C(N)=O)NC(=O)[C@H](Cc2ccc(O)cc2)NC(=O)[C@H](C)NC(=O)[C@H](CCCCN)NC(=O)[C@H](CC(C)C)NC(=O)[C@H](CC(C)C)NC(=O)[C@H](CC(C)C)NC(=O)[C@H](CC(C)C)NC(=O)[C@H](CCCCN)NC(=O)[C@H](CC(C)C)NC(=O)[C@H](CCCCN)NC1=O [cHLH‐ERα] ({CH2CO}-GARELRRLERELRRLEGGGGGGGKLAALKLKLLLLKAYC-NH2; thioether N-39)
inhibitory activity for the 17β‐estradiol‐dependent proliferation of MCF‐7 cells [1]: inhibited the proliferation of MCF‐7 cells dose‐dependently
inhibition of transcriptional activity (β‐galactosidase) in yeast reporter assay [2]: significantly inhibited transcriptional activity
IC50 [3]: 7.1 µM
